In ChEMBL document CHEMBL2086285, “Targeting the liver stage of malaria parasites: a yet unmet goal” (J Med Chem, 2012):
pIC50: −log10 of the molar value.

Assays:
Plasmodium falciparum [1] = experiment: Antimalarial activity against liver stages of Plasmodium falciparum NF54 infected in human hepatocytes assessed as growth inhibition of hepatic parasite after 5 days by fluorescence microscopy; format: functional, organism-based; details: NF54, Hepatocyte, 120 h
Plasmodium berghei [2] = experiment: Antimalarial activity against liver stages of Plasmodium berghei assessed as inhibition of cytochrome bc1 complex; format: functional, organism-based
Plasmodium falciparum [3] = experiment: Antimalarial activity against liver stages of Plasmodium falciparum NF54 infected in human HepG2-A16 cells expressing CD81 assessed as growth inhibition of hepatic parasite after 5 days by fluorescence microscopy; format: functional, organism-based; details: NF54, HepG2A16, Liver, 120 h
Plasmodium berghei [4] = experiment: Antimalarial activity against liver stages of Plasmodium berghei in human HepG2 cells assessed as inhibition of exoerythrocytic development at 1.85 nM administered 3 hrs after sporozite invasion measured after 48 hrs; format: functional
Plasmodium yoelii yoelii [5] = experiment: Antimalarial activity against liver stages of Plasmodium yoelii yoelii 265 BY infected in mouse after 48 hrs by immunofluorescence assay; format: functional, organism-based
Plasmodium falciparum [6] = experiment: Antimalarial activity against liver stages of Plasmodium falciparum NF54 in mouse after 72 to 120 hrs by immunofluorescence assay; format: functional, organism-based
Plasmodium yoelii [7] = experiment: Antimalarial activity against Plasmodium yoelii infected in mouse assessed as protection against parasitic infection at 160 mg/kg, po; format: functional
Plasmodium yoelii [8] = experiment: Antimalarial activity against Plasmodium yoelii infected in po dosed mouse assessed as minimum dose required to protection against 100% parasitic infection; format: functional; details: read-out: MED
Plasmodium yoelii [9] = experiment: Antimalarial activity against liver stages of Plasmodium yoelii infected in mouse assessed as protection against parasitic infection at 50 mg/kg, po after 7 days; format: functional
Plasmodium yoelii [10] = experiment: Antimalarial activity against liver stages of Plasmodium yoelii assessed as inhibition of cytochrome bc1 complex; format: functional, organism-based
Plasmodium berghei [11] = experiment: Antimalarial activity against Plasmodium berghei ANKA infected in human Huh7 cells after 24 hrs by qRT-PCR; format: functional, organism-based; details: Huh-7, 24 h
Plasmodium berghei [12] = experiment: Antimalarial activity against Plasmodium berghei ANKA infected in C57BL/6 mouse assessed as increase in resistance of mouse to cerebral malaria at 10 mg/kg, ip; format: functional; details: route intraperitoneal
Plasmodium yoelii yoelii [13] = experiment: Antimalarial activity against liver stages of Plasmodium yoelii yoelii in mouse hepatocytes assessed as growth inhibition; format: functional, organism-based; details: Hepatocyte
Plasmodium cynomolgi = experiment: Antimalarial activity against liver stages of Plasmodium cynomolgi infected in human HepG2 cells assessed as growth inhibition of hepatic parasite after 3 days; format: functional, organism-based; details: 72 h
Plasmodium yoelii [14] = experiment: Antimalarial activity against liver stages of Plasmodium yoelii 17XNL infected in Swiss Webster mouse assessed as reduction in liver parasite load at 100 mg/kg, po co-administered with 50 mg/kg ritonavir incubated for 6 hrs prior to sporozoite inoculation measured after 18 hrs; format: functional; parameters: scale not given: the % may be the effect or the level left
Plasmodium berghei [15] = experiment: Antimalarial activity against liver stages of Plasmodium berghei […] infected in human Hepa1-6 cells assessed as reduction in liver parasite load at 10 uM/L incubated for 1 hr prior to sporozoite inoculation measured after 46 to 48 hrs by fluorescence microscope; format: functional; parameters: scale not given: the % may be the effect or the level left
Plasmodium yoelii [16] = experiment: Antimalarial activity against liver stages of Plasmodium yoelii 17XNL infected in Swiss Webster mouse assessed as reduction in liver parasite load at 25 mg/kg, po co-administered with 12.5 mg/kg ritonavir incubated for 6 hrs prior to sporozoite inoculation measured after 18 hrs; format: functional; parameters: scale not given: the % may be the effect or the level left
Plasmodium yoelii [17] = experiment: Antimalarial activity against liver stages of Plasmodium yoelii after 96 hrs
Plasmodium yoelii [18] = experiment: Antimalarial activity against liver stages of Plasmodium yoelii after 96 hrs; format: functional, organism-based
Plasmodium yoelii [19] = experiment: Antimalarial activity against Plasmodium yoelii infected in mouse assessed as protection against parasitic infection at 5 mg/kg, po; format: functional
Plasmodium berghei [20] = experiment: Antimalarial activity against liver stages of Plasmodium berghei; format: functional, organism-based
Plasmodium berghei [21] = experiment: Antimalarial activity against Plasmodium berghei ANKA expressing GFP infected in C57BL/6 mouse assessed as reduction of liver infection at 200 mg/kg, po incubated for 6 hrs prior to sporozoite inoculation measured after 40 hrs by qRT PCR; parameters: scale not given: the % may be the effect or the level left
Plasmodium yoelii [22] = experiment: Antimalarial activity against liver stages of Plasmodium yoelii 17XNL expressing GFP infected in human HepG2 cells transfected with CD81 assessed as growth inhibition of hepatic parasite after 40 hrs by flow cytometry; format: functional, organism-based
Plasmodium berghei [23] = experiment: Antimalarial activity against liver stages of Plasmodium berghei infected in human HepG2 cells assessed as growth inhibition of hepatic parasite before invasion of hepatocytes incubated for 48 hrs followed by compound wash out measured after 3 days by RT-PCR analysis; format: functional, organism-based
Plasmodium berghei [24] = experiment: Antimalarial activity against Plasmodium berghei infected in […] 1-6 cells assessed as inhibition of host cell sporozoite invasion at 10 uM preincubated for 10 mins measured after 1 hr; format: functional; details: Hepa1-6
Plasmodium berghei [25] = experiment: Antimalarial activity against liver stages of Plasmodium berghei assessed as human HepG2 cells assessed as inhibition of hepatic parasite growth after invasion of hepatocytes incubated for 48 hrs followed by compound wash out measured after 2 days by RT-PCR analysis; format: functional, organism-based

COC1=C2[C@H]3NCC[C@]2(C[C@H](O)[C@@H]1O)c1c(ccc(OC)c1O)[C@H]3O [TAZOPSINE]
pIC50 (Plasmodium falciparum [1]): 5.38

O=C1C(O)=C([C@H]2CC[C@H](c3ccc(Cl)cc3)CC2)C(=O)c2ccccc21 [ATOVAQUONE]
pIC50 (Plasmodium berghei [2]): 7.71
pIC50 (Plasmodium falciparum [3]): 8.40
inhibition in vivo at 0.00185 µM (Plasmodium berghei [4]): 50%

Cc1c(F)c(N2CCNC(C)C2)cc2c1c(=O)c(C(=O)O)cn2C1CC1 (stereo unspecified) [GREPAFLOXACIN]
pIC50 (Plasmodium yoelii yoelii [5]): 5.00
pIC50 (Plasmodium falciparum [6]): 5.00

CC(C)COC(=O)/N=C(\NC1=NC(=O)C(=O)N1C(C)C)Nc1ccc(Cl)c(Cl)c1
Activity (Plasmodium yoelii [7]): 100%
minimal effective dose (Plasmodium yoelii [8]): 40 mg/kg

CCCCCCCCCCOc1cc2c(O)c(C(=O)OCC)cnc2cc1OCC [DECOQUINATE]
Activity (Plasmodium yoelii [9]): 80%
pIC50 (Plasmodium yoelii [10]): 9.75

C[C@H](NC(=O)[C@@H](O)c1cc(F)cc(F)c1)C(=O)N[C@@H]1C(=O)N(C)c2ccccc2-c2ccccc21
pIC50 (Plasmodium berghei [11]): 4.10
Activity (Plasmodium berghei [12]): 55%

NCCCCN(CCCN)C(=O)CCCCCCCCCCCOCc1ccc2c(c1)[C@@H]1C[C@]3(CCCCO3)NC3=N[C@]4(CCCCO4)C[C@H]2N31
pIC50 (Plasmodium yoelii yoelii [13]): 5.04

CCc1nc(N)nc(N)c1-c1ccc(Cl)cc1 [PYRIMETHAMINE]
pIC50 (Plasmodium cynomolgi): 5.99

Cc1cccc(C)c1OCC(=O)N[C@@H](Cc1ccccc1)[C@@H](O)C[C@H](Cc1ccccc1)NC(=O)[C@H](C(C)C)N1CCCNC1=O [LOPINAVIR]
Activity (Plasmodium yoelii [14]): 93%
Activity (Plasmodium berghei [15]): 38%
Activity (Plasmodium yoelii [16]): 45%

C[C@@H](CN1CC(=O)NC(=O)C1)N1CC(=O)NC(=O)C1 [DEXRAZOXANE]
INH (Plasmodium yoelii [17]): 50 µM
INH (Plasmodium yoelii [18]): 50 µM

CC(C)COC(=O)N/C(=N/C(C)C)NC1=NC(=O)C(=O)N1c1ccc(Cl)c(Cl)c1
Activity (Plasmodium yoelii [19]): 100%

O=c1c(-c2ccc(O)cc2)coc2cc(O)cc(O)c12 [GENISTEIN]
pIC50 (Plasmodium berghei [20]): 4.70
Activity (Plasmodium berghei [21]): 64%

C=CCS[S+]([O-])CC=C (stereo unspecified) [ALLICIN]
pIC50 (Plasmodium yoelii [22]): 4.40
pIC50 (Plasmodium berghei [23]): 5.17
inhibition at 10 µM (Plasmodium berghei [24]): 37%
pIC50 (Plasmodium berghei [25]): 4.40
